# Assay results from the OPERA property sets (Mansouri et al. 2018).
# Conditions: not given
row,Structure (SMILES),solubility [mM]
1,c1ccc2c(c1)-c1cccc3c1c-2cc1ccccc13,5.94e-06
2,Cc1cc(NS(=O)(=O)c2ccc(N)cc2)nc(C)n1,5.79
3,CC=CCCl,11
4,O=C(Nc1ccccc1)Nc1ccccc1,0.707
5,O=C(O)c1cc(Cl)cc(Cl)c1,0.77
6,Cc1ccc(C(=O)O)cc1C,0.86
7,ClCCCCCl,120
8,Nc1ccc(O)c2c1C(=O)c1ccccc1C2=O,0.15
9,CN(C)c1ccc(C(=O)O)cc1,0.4
10,O=C1c2ccccc2C(=O)c2c1ccc(O)c2O,1.67
11,CC[C@H](Br)C(=O)O,419
12,c1ccc(N=NNc2ccccc2)cc1,2.54
13,OC[C@H]1O[C@H](OC[C@H]2O[C@H](O[C@]3(CO)O[C@H](CO)[C@@H](O)[C@@H]3O)[C@H](O)[C@@H](O)[C@@H]2O)[C@H](O)[C@@H](O)[C@H]1O,402

# Same assay, conditions: 20 °C
row,Structure (SMILES),solubility [mM]
1,Clc1ccc(Cl)c(-c2cc(Cl)c(Cl)c(Cl)c2)c1,4.84e-05
2,Clc1cc(Cl)c(-c2cccc(Cl)c2Cl)cc1Cl,8.7e-05
3,CC(Cl)[N+](=O)[O-] (stereo not drawn),36.5
4,COC(=O)c1ccc(OC)cc1,3.87
5,Clc1ccc(-c2c(Cl)cc(Cl)c(Cl)c2Cl)c(Cl)c1,3.37e-05
6,O=C(O)CCc1ccccc1,39.3
7,Clc1ccc(-c2ccc(Cl)c(Cl)c2)c(Cl)c1,0.000126
8,C[C@@H](CCl)[N+](=O)[O-],64.8
9,CCCCC(C)(C)CCC,0.0155
10,Nc1ccc(S(=O)(=O)O)cc1,62.4
11,CCC(C)OC(C)=O (stereo not drawn),53.4
12,Nc1cnn(-c2ccccc2)c(=O)c1Br,0.752
13,C=C(C(=O)O)c1ccccc1,8.77
14,OC[C@H]1O[C@@H](n2cnc3c(O)ncnc32)[C@H](O)[C@@H]1O,58.9
15,Clc1cc(Cl)c(-c2c(Cl)c(Cl)cc(Cl)c2Cl)cc1Cl,1.14e-05
16,CCCCOC(=O)CC,11.5
17,Clc1cc(Cl)c(-c2c(Cl)cc(Cl)c(Cl)c2Cl)cc1Cl,1.24e-05
18,CON(C)C(=O)Nc1ccc(Br)c(Cl)c1,0.119
19,N[C@H](CCCC(=O)O)C(=O)O,13.7
20,CCOP(=O)(OCC)SCC(=O)NC(C)(C)C#N,238
21,Clc1ccc(-c2cc(Cl)ccc2Cl)c(Cl)c1,0.000267
22,CCNc1nc(NC(C)(C)C)nc(OC)n1,0.577
23,CCCCI,1.1
24,CCC(Cl)(Cl)[N+](=O)[O-],31.7
25,Cc1cccc(N)c1,140
26,O=C1NC(=O)C2C3C(C(O)(c4ccccc4)c4ccccn4)=CC(C3=C(c3ccccc3)c3ccccn3)C12 (stereo not drawn),0.117
27,C[C@H](CCC(=O)O)[C@H]1CC[C@H]2[C@@H]3[C@@H](O)C[C@@H]4C[C@H](O)CC[C@]4(C)[C@H]3CC[C@]12C,0.108
28,CCCCOCCOC(C)=O,56.2
29,CCOP(=S)(OCC)Oc1cc(C)nc(N(CC)CC)n1,0.0119
30,O=c1cc(O)cc[nH]1,56.3

# Same assay, conditions: 21 °C
row,Structure (SMILES),solubility [mM]
1,NC(=S)c1c(Cl)cccc1Cl,4.61
2,O=C(O)CCCCCCCCCCCC(=O)O,6.14
3,O=C(O)CCCCCCCCCCCCC(=O)O,0.774
4,Brc1cccc2ccccc12,0.045
5,CCOc1ccc(NC(N)=O)cc1,6.71

# Same assay, conditions: 22 °C
row,Structure (SMILES),solubility [mM]
1,O=C1NC(=O)C(c2ccccc2)(c2ccccc2)N1,0.127
2,CN(C)C(=O)N(C(=O)c1ccccc1)c1ccc(Cl)c(Cl)c1,0.0474

# Same assay, conditions: 23 °C
row,Structure (SMILES),solubility [mM]
1,CC(=O)Nc1cc(NS(=O)(=O)C(F)(F)F)c(C)cc1C,0.58
2,O=C1C(Cl)=C(NC(=O)C(Cl)Cl)C(=O)c2ccccc21,0.00942
3,O=c1[nH]cnc2nc[nH]c12,5.14
4,C[C@]12CC[C@@H](O)C[C@@H]1CC[C@@H]1[C@@H]2CC[C@]2(C)C(=O)CC[C@@H]12,0.0461
5,CCCC(C)(C)C(=O)Nc1ccc(Cl)cc1,0.0951

# Same assay, conditions: 24 °C
row,Structure (SMILES),solubility [mM]
1,Nc1cccc2nc3ccccc3cc12,0.06
2,Cc1c2ccccc2cc2c1ccc1ccccc12,4.54e-05
3,O=NN1CCCCC1,670
4,CCN(CC)N=O,1040
5,CNCCCN1c2ccccc2CCc2ccccc21,0.22
6,COP(=S)(Oc1cc(Cl)c(Br)cc1Cl)c1ccccc1 (stereo not drawn),7.28e-05
7,CN(C)CCC=C1c2ccccc2CCc2ccccc21,0.035

# Same assay, conditions: 25 °C
row,Structure (SMILES),solubility [mM]
1,Clc1ccc(Br)cc1,0.235
2,O=[N+]([O-])c1ccccc1O,18
3,NCC[C@H](O)C(=O)N[C@@H]1C[C@H](N)[C@@H](O[C@H]2O[C@H](CN)[C@@H](O)[C@H](O)[C@H]2O)[C@H](O)[C@H]1O[C@H]1O[C@H](CO)[C@@H](O)[C@H](N)[C@H]1O,316
4,CC1CCC(C)CC1 (stereo not drawn),0.0342
5,Cc1c(N)c(=O)n(-c2ccccc2)n1C,3580
6,CC(C(=O)O)C(=O)O,5750
7,OC(c1ccccc1)c1ccccc1,2.82
8,O=C(O)c1ccc(F)cc1,8.56
9,CCC(O)CC,584
10,CCCC(=O)CC,147
11,Clc1ccc(Cl)c(-c2ccccc2)c1,0.00502
12,Cc1ccc(C(=O)O)cc1,2.5
13,Nc1ccc(S(=O)(=O)Nc2nccs2)cc1,3.76
14,Cc1cccc2c(C)cccc12,0.0175
15,C=CCCCCC,0.185
16,CCCN(CCC)CCC,5.22
